Assay [1] in a line: In vitro antiviral activity against HIV-1 Reverse transcriptase wild type.
A short description of assay [2]: In vitro antiviral activity against HIV-1 Reverse transcriptase M184V mutant.

A word on the EC50: it is the concentration needed to bring the measured effect to its halfway point. A high value points to lower potency in that assay. As for `Nc1nc(=O)n([C@@H]2C=C[C@H](CO)O2)cc1F` [ACH-126443], the concentration giving a half-maximal response (EC50) in assay [1] was 180 nM; in assay [2], 140 nM.

Take `Cc1cn([C@H]2C=C[C@@H](CO)O2)c(=O)[nH]c1=O` [2',3'-didehydro-3'-deoxythymidine]: the EC50 in assay [1] stood at 450 nM; in assay [2] it was 500 nM.

As to `Nc1ccn([C@@H]2CS[C@H](CO)O2)c(=O)n1` [Epivir], the figures for the concentration for a half-maximal effect (EC50) in assay [1] and in assay [2] were 42 nM and > 50000 nM, respectively.
